In test [1] the target is T1, rabbit TPI (purified from muscle) (Oryctolagus cuniculus, UniProt P00939).
T1 construct: gene TPI1; native enzyme purified from rabbit muscle; homodimer
The test is described as follows: TPI activity assay, PEP titration. It counts as biochemical. The text has this: TPI activity assay, PEP titration on rabbit TPI (purified from muscle) | IC50 values and the inhibitory constant Ki are given in μM

Test [2] addresses T2, human TPI (expressed in yeast) (Homo sapiens, UniProt P60174).
T2 construct: gene TPI1; human TPI expressed in transgenic yeast lacking endogenous TPI1; extract, activity normalized to total cellular protein; homodimer
The test is described as follows: TPI activity assay, PEP titration. The class given is cell-based. The text has this:
TPI activity assay, PEP titration on human TPI (expressed in yeast) | IC50 values and the inhibitory constant Ki are given in μM

Test [3] addresses T3, yeast TPI (endogenous) (Saccharomyces cerevisiae, UniProt P00942).
T3 construct: gene TPI1; endogenous full-length enzyme in yeast extract, activity normalized to total cellular protein; homodimer
T3 sequence (P00942 2-248): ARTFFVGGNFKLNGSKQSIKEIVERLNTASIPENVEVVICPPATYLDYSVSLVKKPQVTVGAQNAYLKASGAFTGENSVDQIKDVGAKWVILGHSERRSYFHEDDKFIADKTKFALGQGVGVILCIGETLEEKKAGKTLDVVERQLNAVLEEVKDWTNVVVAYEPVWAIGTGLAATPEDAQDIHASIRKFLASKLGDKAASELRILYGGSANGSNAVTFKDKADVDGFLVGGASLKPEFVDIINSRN
Put plainly: TPI activity assay, PEP titration; Ki by Cheng-Prusoff equation. It counts as biochemical. Conditions: substrate gly3p, yeast extract.

The target of test [4] is T1, rabbit TPI (purified from muscle). Described as above. The class given is biochemical.
For test [5], the target named is T2, human TPI (expressed in yeast). The description is as above. It counts as biochemical.
The target of test [6] is T3, yeast TPI (endogenous). Put plainly: TPI activity assay, PEP titration. Conditions: substrate gly3p, yeast extract. It counts as cell-based. From the text:
TPI activity assay, PEP titration on yeast TPI (endogenous) | IC50 values and the inhibitory constant Ki are given in μM

For test [7], the target named is T3, yeast TPI (endogenous). Put plainly: TPI activity assay, Michaelis-Menten kinetics. It counts as biochemical. Particulars: yeast extract, no PEP.

For 2 compounds, IC50, Ki and Km results are on record in article PMC3202625, “Pyruvate Kinase Triggers a Metabolic Feedback Loop that Controls Redox Metabolism in Respiring Cells” (Cell Metabolism, 2011).

Structures are written as SMILES.

T2 sequence (P60174 2-249): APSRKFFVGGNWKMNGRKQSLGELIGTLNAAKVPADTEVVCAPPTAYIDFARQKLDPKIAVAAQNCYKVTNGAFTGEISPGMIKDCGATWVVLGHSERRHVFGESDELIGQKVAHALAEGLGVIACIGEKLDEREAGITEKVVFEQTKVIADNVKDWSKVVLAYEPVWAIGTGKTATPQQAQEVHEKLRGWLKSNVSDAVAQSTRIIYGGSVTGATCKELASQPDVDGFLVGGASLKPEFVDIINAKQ
T1 sequence (P00939 2-249): as the sequence (P60174 2-249) above, with Q19K, S20N, G26T, A118S counted along it

Consider `C=C(OP(=O)(O)O)C(=O)O` [PEP], for which the IC50 in test [1] worked out at 515 µM; in test [2], 531 µM; in test [6], 1.13 mM. Besides, the Ki in test [3] is 392 µM; in test [4] it was 156 µM; in test [5], 163 µM.
`O=C[C@H](O)COP(=O)(O)O` [gly3p]: in test [7], the Km was found to be 854 µM.

As a reminder, the IC50 is the concentration that inhibits the measured activity by half. A low value points to higher potency. One may read the Ki as a dissociation constant, usually derived from enzyme kinetics or from competition with a known ligand. Read a high Ki as weaker binding. One may read the Km as the concentration of substrate that gives half-maximal velocity.
